US12655124B2, “Heterocyclic compounds as modulators of stimulator of interferon genes (STING)” (RYVU THERAPEUTICS S.A., priority 2019, dated 2026)
Structures can show the parent of a compound that is named as a salt.

Tests used:
[1] = test system: interferon regulatory factor (IRF) pathway in THP-1 dual cells; experiment: THP-1 Dual reporter assay, IRF pathway (luciferase); assay type: cell-based; details: Homo sapiens, THP1-Dual, 18 h stimulation, luminescence
Experimental: (§1) THP-1 Dual Reporter Assay
(§2) Compounds of the present invention were tested for their activity using THP-1 dual cells (Invivogen, cat no. thpd-nfis) allowing for simultaneous study of NF-κB pathway and the interferon regulatory factor (IRF) pathway. THP-1 dual cells contain luciferase reporter gene under the control of an ISG54 (interferon-stimulated gene) minimal promoter in conjunction with five interferon-stimulated response elements and a secreted embryonic alkaline phosphatase reporter gene under the control an IFN (interferon)-β minimal promoter fused to five copies of the NF-κB consensus transcriptional response element with three copies of the c-Rel binding site. Following 18 h of stimulation with STING agonist, medium was collected and transferred onto fresh cell culture plate. To verify activity of the IRF pathway, luminescence activity was measured with standard laboratory plate reader immediately after addition 10 μl of the medium to 40 or 50 μl of luminescence reagent (Invivogen, cat. No. rep-qlc2). To verify activity of NF-κB pathway, 10 or 20 μl of the medium was mixed with 80 μl of a detection medium (Invivogen, cat. No. rep-qb2) and incubated for 1 or 2 hours at 37° C. in a humidified atmosphere containing 5% CO2. Next, absorbance at 630 or 655 nm was recorded using standard laboratory plate reader.

[2] = test system: NF-κB pathway in THP-1 dual cells; experiment: THP-1 Dual reporter assay, NF-κB pathway (SEAP); assay type: cell-based; details: Homo sapiens, THP1-Dual, 18 h stimulation, absorbance at 630 or 655 nm, read-out: THP1 Dual EC50 (μM) NFkB
Experimental: as §1, §2

[3] = molecular target: human STING (Homo sapiens, UniProt Q86WV6); experiment: Fluorescence Thermal Shift assay (hSTING FTS binding assay); details: ΔTm, STING 0.1 mg/mL, SyproOrange, 25 to 99° C.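 Note: STING preincubated with compound for 20 min in HEPES NaCl buffer pH 7.5.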
Experimental: Fluorescence Thermal Shift Assay Compounds of the present invention were tested for binding to human STING in Fluorescence Thermal Shift assay. […] Final STING concentration was 0.1 mg/mL. Thermal unfolding was performed in Real-Time PCR QuantStudio 6 Flex System (Applied Biosystems), from 25 to 99° C., with continuous ramp mode and ramp rate 0.033° C./s. The data were analyzed using Protein Thermal Shift Software (ThermoFisher).

human STING, sequence (Q86WV6 whole entry H232R): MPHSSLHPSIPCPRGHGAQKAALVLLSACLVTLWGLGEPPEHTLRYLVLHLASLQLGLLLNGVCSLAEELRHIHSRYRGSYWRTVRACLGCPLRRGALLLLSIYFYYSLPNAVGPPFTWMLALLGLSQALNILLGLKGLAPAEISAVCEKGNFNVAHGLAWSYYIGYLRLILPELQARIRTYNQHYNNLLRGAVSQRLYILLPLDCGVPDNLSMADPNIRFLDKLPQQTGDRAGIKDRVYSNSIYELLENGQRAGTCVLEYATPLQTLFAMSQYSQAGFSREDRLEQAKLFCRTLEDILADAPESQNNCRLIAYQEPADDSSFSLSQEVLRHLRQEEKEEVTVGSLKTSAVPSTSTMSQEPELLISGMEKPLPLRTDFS

`Cc1ccc(N2CCC[C@H](N(Cc3ccnc(C)c3)Cc3cn(C)c4cc(N5CC[C@H](N)C(F)(F)C5)ccc4c3=O)C2)cn1` (single isomer, unassigned) [Example 51] gave an EC50 [1] of at most 1 µM and an EC50 [2] of 1 to 10 µM.
For `Cc1ccc(N2CCC[C@H](N(Cc3ccnc(C)c3)Cc3cn(CCN)c4ccccc4c3=O)C2)cn1` [Example 18, 1-(2-Aminoethyl)-3-({[(3S)-1-(6-methylpyridin-3-yl)piperidin-3-yl][(2-methylpyridin-4-yl)methyl]amino}methyl)-1,4-dihydroquinolin-4-one], the EC50 [1] was 1 to 10 µM, the EC50 [2] was 1 to 10 µM and the “hSTING FTS binding assay (ΔT ° C.)” value [3] was “+ (ΔTm≤10° C.)”.
`Cc1cc(CN(Cc2cn(C(C)C)c3cc(F)c(F)cc3c2=O)[C@H]2CCCN(c3ccc(N)nc3)C2)ccn1.Cl` [Example 24, 3-({[(3S)-1-(6-aminopyridin-3-yl)piperidin-3-yl][(2-methylpyridin-4-yl)methyl]amino}methyl)-6,7-difluoro-1-(propan-2-yl)-1,4-dihydroquinolin-4-one Hydrochloride] was tested, and the EC50 [1] was at most 1 µM, the EC50 [2] was at most 1 µM and the “hSTING FTS binding assay (ΔT ° C.)” value [3] was “+++ (ΔTm≥20° C.)”.
In the case of `Cc1ccc(N2CCC[C@H](N(Cc3ccnc(C)c3)Cc3cn(C4CC4)c4cc(NC(=O)CN)c(F)cc4c3=O)C2)cn1` [Example 25, 2-amino-N-[1-cyclopropyl-6-fluoro-3-({[(3S)-1-(6-methylpyridin-3-yl)piperidin-3-yl][(2-methylpyridin-4-yl)methyl]amino}methyl)-4-oxo-1,4-dihydroquinolin-7-yl]acetamide], the EC50 [1] is reported as at most 1 µM, the EC50 [2] is reported as at most 1 µM and the “hSTING FTS binding assay (ΔT ° C.)” value [3] is reported as “+++ (ΔTm≥20° C.)”.
For `Cc1ccc(N2CCC[C@H](N(Cc3ccnc(C)c3)Cc3cn(C4CC4)c4nc(N)c(F)cc4c3=O)C2)cn1` [Example 36, 7-amino-1-cyclopropyl-6-fluoro-3-({[(3S)-1-(6-methylpyridin-3-yl)piperidin-3-yl][(2-methylpyridin-4-yl)methyl]amino}methyl)-1,4-dihydro-1,8-naphthyridin-4-one], the EC50 [1] was at most 1 µM and the EC50 [2] was at most 1 µM.
For `Cc1cc(CN(Cc2cn(C)c3ccccc3c2=O)[C@H]2CCCN(c3ccc(CCO)nc3)C2)ccn1` [Example 43, 3-({[(3S)-1-[6-(2-hydroxyethyl)pyridin-3-yl]piperidin-3-yl][(2-methylpyridin-4-yl)methyl]amino}methyl)-1-methyl-1,4-dihydroquinolin-4-one], the EC50 [1] was 1 to 10 µM and the EC50 [2] was 1 to 10 µM.
Compound `Cc1cc(CN(Cc2cn(C)c3ccccc3c2=O)[C@H]2CCCN(c3cncc(CO)c3)C2)ccn1` [Example 44, 3-({[(3S)-1-[5-(hydroxymethyl)pyridin-3-yl]piperidin-3-yl][(2-methylpyridin-4-yl)methyl]amino}methyl)-1-methyl-1,4-dihydroquinolin-4-one] has an EC50 [1] of at least 10 µM and an EC50 [2] of at least 10 µM.
For `Cc1ccc(N2CCC[C@H](N(Cc3ccnc(C)c3)Cc3cn(C4CC4)c4cc(N5CC[C@@H](O)C5)ccc4c3=O)C2)cn1` [Example 45, 1-cyclopropyl-7-[(3R)-3-hydroxypyrrolidin-1-yl]-3-({[(3S)-1-(6-methylpyridin-3-yl)piperidin-3-yl][(2-methylpyridin-4-yl)methyl]amino}methyl)-1,4-dihydroquinolin-4-one], the EC50 [1] was at most 1 µM, the EC50 [2] was at most 1 µM and the “hSTING FTS binding assay (ΔT ° C.)” value [3] was “+++ (ΔTm≥20° C.)”.
In the case of `Cc1cc(CN(Cc2cn(C)c3cc(N4CCC(C(=O)O)CC4)ccc3c2=O)[C@H]2CCCN(c3cccnc3)C2)ccn1` [Example 46, 1-[1-methyl-3-({[(2-methylpyridin-4-yl)methyl][(3S)-1-(pyridin-3-yl)piperidin-3-yl]amino}methyl)-4-oxo-1,4-dihydroquinolin-7-yl]piperidine-4-carboxylic Acid], the EC50 [1] is reported as at least 10 µM, the EC50 [2] is reported as at least 10 µM and the “hSTING FTS binding assay (ΔT ° C.)” value [3] is reported as “++ (10<ΔTm<20° C.)”.
`Cc1ccc(N2CCC[C@H](N(Cc3ccnc(C)c3)Cc3cn(C4CC4)c4cc(OCCO)c(F)cc4c3=O)C2)cn1` [Example 47, 1-Cyclopropyl-6-fluoro-7-(2-hydroxyethoxy)-3-({[(3S)-1-(6-methylpyridin-3-yl)piperidin-3-yl][(2-methylpyridin-4-yl)methyl]amino}methyl)-1,4-dihydroquinolin-4-one] was tested, and the EC50 [1] was at most 1 µM, the EC50 [2] was at most 1 µM and the “hSTING FTS binding assay (ΔT ° C.)” value [3] was “+++ (ΔTm≥20° C.)”.
In the case of `Cc1ccc(N2CCC[C@H](N(Cc3ccnc(C)c3)Cc3cn(C4CC4)c4cc(-n5cc(C(N)=O)nn5)c(F)cc4c3=O)C2)cn1` [Example 60, 1-[1-Cyclopropyl-6-fluoro-3-({[(3S)-1-(6-methylpyridin-3-yl)piperidin-3-yl][(2-methylpyridin-4-yl)methyl]amino}methyl)-4-oxo-1,4-dihydroquinolin-7-yl]-1H-1,2,3-triazole-4-carboxamide], the EC50 [1] is reported as at most 1 µM and the EC50 [2] is reported as at most 1 µM.
`Cc1ccc(N2CCC[C@H](N(Cc3ccnc(C)c3)Cc3cn(C4CC4)c4cc(-n5cc(CO)nn5)c(F)cc4c3=O)C2)cn1` [Example 61, 1-Cyclopropyl-6-fluoro-7-[4-(hydroxymethyl)-1H-1,2,3-triazol-1-yl]-3-({[(3S)-1-(6-methylpyridin-3-yl)piperidin-3-yl][(2-methylpyridin-4-yl)methyl]amino}methyl)-1,4-dihydroquinolin-4-one] was tested, and the EC50 [1] was at most 1 µM and the EC50 [2] was at most 1 µM.
`Cc1ccc(N2CCC[C@H](N(Cc3ccnc(C)c3)Cc3cn(C)c4c(OCCO)cccc4c3=O)C2)cn1` [Example 63, 8-(2-hydroxyethoxy)-1-methyl-3-({[(3S)-1-(6-methylpyridin-3-yl)piperidin-3-yl][(2-methylpyridin-4-yl)methyl]amino}methyl)-1,4-dihydroquinolin-4-one] showed an EC50 [1] of at most 1 µM and an EC50 [2] of at most 1 µM.
For `COc1cc(CN(Cc2cn(C3CC3)c3cc(N4CC[C@@H](O)C4)c(F)cc3c2=O)[C@H]2CCCN(c3cccnc3)C2)ccn1` [Example 65, 1-cyclopropyl-6-fluoro-7-[(3R)-3-hydroxypyrrolidin-1-yl]-3-({[(2-methoxypyridin-4-yl)methyl][(3S)-1-(pyridin-3-yl)piperidin-3-yl]amino}methyl)-1,4-dihydroquinolin-4-one Hydrochloride], the EC50 [1] was at most 1 µM and the EC50 [2] was at most 1 µM.
In the case of `Cc1ccc(N2CCC[C@H](N(Cc3ccnc(C)c3)Cc3cn(C4CC4)c4cc(CN)c(F)cc4c3=O)C2)cn1` [Example 80, 7-(aminomethyl)-1-cyclopropyl-6-fluoro-3-({[(3S)-1-(6-methylpyridin-3-yl)piperidin-3-yl][(2-methylpyridin-4-yl)methyl]amino}methyl)-1,4-dihydroquinolin-4-one], the EC50 [1] is reported as at most 1 µM and the EC50 [2] is reported as at most 1 µM.
`Cc1cc(CN(Cc2cn(C3CC3)c3cc(OCCO)c(F)cc3c2=O)[C@H]2CCCN(c3cccnc3)C2)ccn1` [Example 84, 1-cyclopropyl-6-fluoro-7-(2-hydroxyethoxy)-3-({[(2-methylpyridin-4-yl)methyl][(3S)-1-(pyridin-3-yl)piperidin-3-yl]amino}methyl)-1,4-dihydroquinolin-4-one Hydrochloride] gave an EC50 [1] of at most 1 µM and an EC50 [2] of at most 1 µM.
In the case of `Cc1cc(CN(Cc2cn(C3CC3)c3cc(OCCO)c(F)cc3c2=O)[C@H]2CCCN(c3cnccn3)C2)ccn1.Cl` [Example 85, 1-cyclopropyl-6-fluoro-7-(2-hydroxyethoxy)-3-({[(2-methylpyridin-4-yl)methyl][(3S)-1-(pyrazin-2-yl)piperidin-3-yl]amino}methyl)-1,4-dihydroquinolin-4-one Hydrochloride], the EC50 [1] is reported as at most 1 µM, the EC50 [2] is reported as at most 1 µM and the “hSTING FTS binding assay (ΔT ° C.)” value [3] is reported as “++ (10<ΔTm<20° C.)”.
With `Cc1cc(CN(Cc2cn(C3CC3)c3cc(OCCO)c(F)cc3c2=O)[C@H]2CCCN(c3ccc(Cl)nc3)C2)ccn1` [Example 97, 3-({[(3S)-1-(6-chloropyridin-3-yl)piperidin-3-yl][(2-methylpyridin-4-yl)methyl]amino}methyl)-1-cyclopropyl-6-fluoro-7-(2-hydroxyethoxy)-1,4-dihydroquinolin-4-one Hydrochloride] the EC50 [1] was at most 1 µM and the EC50 [2] was at most 1 µM.
